Experimental data from patent US20200010857A1 (priority 2016, published 2020).
Read-outs that look alike come from different tables or passages of the source.

Assays:
[1] = system: Rhodococcus aetherivorans BCP1; test: Tolerance of BCP1 towards SeO3^2− oxyanions (MIC^Se); assay type: cell-based
Protocol: (§1) Rhodococcus aetherivorans BCP1 strain (DSM 44980) was pre-cultured in 250 mL Erlenmeyer Baffled Flask for 48 h in 25 mL of Luria-Bertani medium (indicated as LB) [containing (g/L) NaCl, 10; Yeast Extract, 5; Tryptone, 10]. When necessary the medium was solidified by adding 15 g/L of Agar. BCP1 cells were then inoculated (1% v/v) and grown for 120 h in 50 mL of LB broth to which was added either 0.5 mM or 2 mM of Na2SeO3. This first bacterial growth is here defined as unconditioned. After the unconditioned growth, BCP1 cells were re-inoculated (1% v/v) and cultured for other 120 h in 50 mL of fresh LB medium supplied with a new addition of either 0.5 or 2 mM of Na2SeO3. Here we refer to this bacterial growth as conditioned. Unconditioned or conditioned cultures were incubated aerobically at 30° C. with shaking (150 rpm). Bacterial growth rate was evaluated by spot plate count method every 24 h over the incubation time. LB agar plates containing the spotted cells were recovered for 48 h at 30° C. The number of growing cells is reported as mean the Colony forming Unit (log10[CFU/mL]) with standard deviation. All the reagents were purchased from Sigma-Aldrich®.
The BCP1 strain has been exposed to different concentrations of Na2SeO3, ranging from 0.5 to 200 mM as initial concentration to evaluate its tolerance towards these toxic oxyanions. Briefly, after 24 h of exposure to each concentration of Na2SeO3 tested, BCP1 cells were serially diluted in sterile saline solution (NaCl 0.9% w/v) and the number of viable cells were determined by spot plates count on LB agar recovery plates. The assay was conducted in triplicate and the viable cell numbers are indicated as the average of the log10[CFU/mL] with standard deviation.

[2] = system: Rhodococcus aetherivorans BCP1; test: Growth of BCP1 in LB supplied with Na2SeO3 (spot plate count); assay type: cell-based; conditions: unconditioned cells
Protocol: as §1

Salinicoccus sp. QW6 = conditions: K2TeO3 in rich medium, aerobic; Amoozegar et al. (2008); cited from earlier work
bacterial cells = conditions: cited from earlier work
Lysinibacillus sp. ZYM-1 = conditions: K2TeO3 in rich medium, aerobic; Zao et al. (2016); cited from earlier work
Bacillus sp. BZ = conditions: K2TeO3 in rich medium, aerobic; Zare et al. (2012); cited from earlier work
Paenibacillus TeW = conditions: K2TeO3 in rich medium, aerobic; Chien et al. (2009); cited from earlier work
[3] = system: Corynebacterium difteriaes; conditions: K2TeO3 in rich medium, aerobic; Tucker et al. (1961); cited from earlier work
[4] = system: Rhodococcus aetherivorans BCP1; test: Minimal Inhibitory Concentration (MIC) of tellurite, kill curve; assay type: cell-based; conditions: for log reduction of BCP1 viable cells: 24 h
Protocol: The strain Rhodococcus aetherivorans BCP1 (DSM 44980) was pre-cultured in 250 mL Erlenmeyer Baffled Flask for 2 days, containing 25 mL of Luria-Bertani medium (here indicated as LB) [composed of (g/L) NaCl, 10; Yeast Extract, 5; Tryptone, 10]. When necessary, the medium was solidified by adding 15 g/L of Agar. BCP1 cells were then inoculated (1% v/v) and grown for 5 days in 50 mL of LB medium supplied with either 100 (0.4 mM) or 500 (2 mM) μg/mL of K2TeO3. Here we refer to this first bacterial growth as unconditioned. After this growth step, BCP1 cells were re-inoculated (1% v/v) and cultured for other 5 days in 50 mL of fresh LB medium and 100 or 500 μg/mL of K2TeO3. This secondary bacterial growth is here defined as conditioned. Each culture was incubated aerobically at 30° C. with shaking (150 rpm). In order to evaluate the bacterial growth rate, every 24 h an aliquot (100 μL) of BCP1 cells was collected from each culture and serially diluted in sterile saline solution (NaCl 0.9% w/v). The cells were recovered on LB agar plates for 48 h at 30° C. The number of growing cells is reported as average of the Colony Forming Unit per milliliter (CFU mL^−1) counted for each biological trial (n=3) with standard deviation. All the reagents were purchased from Sigma-Aldrich®.
After 24 h of incubation the number of viable cells was determined by spot plates count on LB agar recovery plates. The assay was conducted in triplicate and the data are reported as average of the CFU mL-1 counted with standard deviation. The established MIC and corresponding kill curve was used to choose the best concentration of K2TeO3 to use for nano-material production.

Bacillus sp. STG-83 = conditions: K2TeO3 in rich medium, aerobic; Soudi et al.(2009); cited from earlier work

With `O=[Se](O)O` [Na2SeO3, sodium selenite] the “log reduction in number of viable cells” value ([1]; 0.5 mM versus 200 mM Na2SeO3, 24 h) was 2 log, the “number of viable cells” value ([1]; 24 h exposure to 0.5 mM Na2SeO3) was 2.00·10^6 CFU/mL and the “number of viable cells” value ([1]; 24 h exposure to 0.5 mM Na2SeO3, listed as SeO3^2−) was 2·10^6 CFU/mL. The “number of viable cells” value ([1]; 24 h exposure to 2 mM SeO3^2−) was 1.72·10^6 CFU/mL, the “number of viable cells” value ([1]; 24 h exposure to 200 mM Na2SeO3) was 6.17·10^4 CFU/mL and the “BCP1 tolerance, times higher than MIC^Se of Streptomyces microflavus FSHJ31” value ([1]; ratio of MIC^Se values) was 80 times. The “BCP1 tolerance, times higher than MIC^Se of Streptomyces sp. ES2-5” value ([1]; ratio of MIC^Se values) was 4 times, the “number of live cells counted” value ([2]; 0.5 mM Na2SeO3, 72 h) was 6.33·10^6 CFU/mL and the “number of viable cells” value ([2]; 0.5 mM Na2SeO3, 120 h) was 1.2·10^6 CFU/mL. The “number of growing cells” value ([2]; 2 mM Na2SeO3, 72 h) was 4.24·10^6 CFU/mL and the “number of growing cells” value ([2]; 2 mM Na2SeO3, 120 h) was 9.83·10^5 CFU/mL.

In the case of `O=[Te]([O-])[O-].[K+].[K+]` [K2TeO3, potassium tellurite], the “MIC^Te” value (Salinicoccus sp. QW6) is given as 12000 µM, the “MIC^Te” value (bacterial cells; aerobic growth) is given as 2 µg/mL and the “MIC^Te” value (bacterial cells; anaerobic growth) is given as 250 µg/mL. The “MIC^Te” value (Lysinibacillus sp. ZYM-1) was 2000 µM, the “MIC^Te” value (Bacillus sp. BZ) was 800 µM and the “MIC^Te” value (Paenibacillus TeW) was 1000 µM. For the same compound, the “MIC^Te” value [3] was 1000 µM, the “number of BCP1 viable cells” value ([4]; 24 h exposure to 100 μg/mL K2TeO3) was 5.00·10^5 CFU/mL and the “number of BCP1 viable cells” value ([4]; 24 h exposure to 500 μg/mL K2TeO3) was 1.00·10^5 CFU/mL. The “decrease of number of BCP1 viable cells” value ([4]; 24 h exposure to 100 or 500 μg/mL K2TeO3) was “less than 1 log”, the “Minimal Inhibitory Concentration (MIC) of TeO3^2−” value ([4]; 24 h exposure to K2TeO3 in LB, aerobic) was 2800 µg/mL and the “Minimal Inhibitory Concentration (MIC^Te)” value ([4]; 24 h exposure to K2TeO3 in rich medium (LB), aerobic) was 11200 µM. The “log reduction of BCP1 viable cells” value ([4]; K2TeO3 varied from 100 to 1000 μg/mL (0.4-4 mM)) was 1 log, the “log reduction of BCP1 viable cells” value ([4]; K2TeO3 varied from 100 to 2000 μg/mL (0.4-8 mM)) was 2 log and the “log reduction of viable cells vs number at time of inoculation” value ([4]; at the MIC, 2800 μg/mL K2TeO3, 24 h) was 3 log. For the same compound, the “BCP1 strain tolerance relative to MIC^Te of Corynebacterium difteriaes” value ([4]; ratio of MIC^Te values) was “ten times higher” and the “MIC^Te” value (Bacillus sp. STG-83) was 1250 µM.
